Measurements published in ChEMBL document CHEMBL1201862, “PubChem BioAssay data set” (2004).
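In this assay, cells in 96-well plates receive the compound at five concentrations for 48 hours. Endpoints are linearly interpolated between the surrounding concentrations. Abbreviation: GI50, concentration required for 50% inhibition of growth.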 The source made the active and inactive calls. Rule as the data show it: active = GI50 up to about 1.1 µM and inactive = higher.

What was measured:
Experiment in all cases: DTP human tumour cell line panel, 48 h
CAKI-1 = tested on: CAKI-1
CCRF-CEM = tested on: CCRF-CEM
COLO 205 = tested on: COLO 205
Hs-578T = tested on: Hs-578T
IGROV-1 = tested on: IGROV-1
KM12 = tested on: KM12
LOX IMVI = tested on: LOX IMVI
M14 = tested on: M14
NCI-H460 = tested on: NCI-H460
OVCAR-4 = tested on: OVCAR-4
SF-539 = tested on: SF-539
SK-MEL-2 = tested on: SK-MEL-2
SK-MEL-5 = tested on: SK-MEL-5
SNB-19 = tested on: SNB-19
SW-620 = tested on: SW-620
TK-10 = tested on: TK-10
U-251 = tested on: U-251
UACC-62 = tested on: UACC-62
K562 = tested on: K562

Row | Structure (SMILES) | GI50 (CAKI-1) | GI50 (CCRF-CEM) | GI50 (COLO 205) | GI50 (Hs-578T) | GI50 (IGROV-1) | GI50 (KM12) | GI50 (LOX IMVI) | GI50 (M14) | GI50 (NCI-H460) | GI50 (OVCAR-4) | GI50 (SF-539) | GI50 (SK-MEL-2) | GI50 (SK-MEL-5) | GI50 (SNB-19) | GI50 (SW-620) | GI50 (TK-10) | GI50 (U-251) | GI50 (UACC-62) | GI50 (K562)
1 | O=C(O)c1c(-c2nccc3ccccc23)[nH]c(-c2ccccc2)c1S(=O)(=O)O | > 100 µM (inactive) | > 100 µM (inactive) | > 100 µM (inactive) | > 100 µM (inactive) | > 100 µM (inactive) | > 100 µM (inactive) | > 100 µM (inactive) | > 100 µM (inactive) | > 100 µM (inactive) | > 100 µM (inactive) | > 100 µM (inactive) | > 100 µM (inactive) | > 100 µM (inactive) | > 100 µM (inactive) | > 100 µM (inactive) | > 100 µM (inactive) | > 100 µM (inactive) | > 100 µM (inactive) | –
2 | Cc1ccc(-c2n[nH]c(=O)n2N2C(=O)C=CC2=O)cc1 | > 100 µM (inactive) | > 100 µM (inactive) | > 100 µM (inactive) | > 100 µM (inactive) | > 100 µM (inactive) | – | – | > 100 µM (inactive) | > 100 µM (inactive) | > 100 µM (inactive) | > 100 µM (inactive) | > 100 µM (inactive) | > 100 µM (inactive) | – | – | > 100 µM (inactive) | > 100 µM (inactive) | > 100 µM (inactive) | > 100 µM (inactive)
3 | COc1ccc(/C=N/n2c(Cc3ccccc3)n[nH]c2=O)cc1 | > 100 µM (inactive) | > 100 µM (inactive) | > 100 µM (inactive) | 32.3 µM (inactive) | – | > 100 µM (inactive) | – | > 100 µM (inactive) | > 100 µM (inactive) | > 100 µM (inactive) | > 100 µM (inactive) | > 100 µM (inactive) | – | 70.6 µM (inactive) | > 100 µM (inactive) | – | 37 µM (inactive) | > 100 µM (inactive) | > 100 µM (inactive)
4 | CCN(CC)N1C(=O)[N-][N+](CC)(CC)C1=O | > 100 µM (inactive) | > 100 µM (inactive) | 71.1 µM (inactive) | > 100 µM (inactive) | > 100 µM (inactive) | > 100 µM (inactive) | > 100 µM (inactive) | > 100 µM (inactive) | > 100 µM (inactive) | > 100 µM (inactive) | > 100 µM (inactive) | > 100 µM (inactive) | > 100 µM (inactive) | > 100 µM (inactive) | > 100 µM (inactive) | > 100 µM (inactive) | > 100 µM (inactive) | > 100 µM (inactive) | –
5 | CC[N+]1(C)CCC(O)(c2ccc(Cl)c(Cl)c2)C(C(=O)c2ccc(Cl)c(Cl)c2)C1 (stereo not drawn) | > 10 µM (inactive) | 2.61 µM (inactive) | > 10 µM (inactive) | > 10 µM (inactive) | > 10 µM (inactive) | > 10 µM (inactive) | > 10 µM (inactive) | > 10 µM (inactive) | > 10 µM (inactive) | > 10 µM (inactive) | > 10 µM (inactive) | > 10 µM (inactive) | > 10 µM (inactive) | > 10 µM (inactive) | > 10 µM (inactive) | > 10 µM (inactive) | > 10 µM (inactive) | – | > 10 µM (inactive)
6 | CSC1=NN(c2ccccc2)C(=O)C1=C(SC)SC | 20 µM (inactive) | 14.2 µM (inactive) | 13.2 µM (inactive) | 18.1 µM (inactive) | – | 31.6 µM (inactive) | 20.2 µM (inactive) | 37.2 µM (inactive) | 14.2 µM (inactive) | 19.4 µM (inactive) | 21.7 µM (inactive) | 22.8 µM (inactive) | 16.3 µM (inactive) | 23.2 µM (inactive) | 33.5 µM (inactive) | 19.5 µM (inactive) | 22.2 µM (inactive) | 21.2 µM (inactive) | 20.1 µM (inactive)
7 | COC(=O)C1(Cc2ccc3c(c2)CCC3)Cc2cc3c(cc2C1)CCC3 | – | 19.3 µM (inactive) | 38.5 µM (inactive) | 65.6 µM (inactive) | 80 µM (inactive) | 33.2 µM (inactive) | 18.7 µM (inactive) | 35.2 µM (inactive) | 35 µM (inactive) | 32.2 µM (inactive) | > 100 µM (inactive) | 19.9 µM (inactive) | 27 µM (inactive) | 68.1 µM (inactive) | 75.7 µM (inactive) | > 100 µM (inactive) | 37.4 µM (inactive) | 71.3 µM (inactive) | 30.5 µM (inactive)
8 | Nc1c(Cl)ncnc1NCC1(CO)CCC1 | – | > 100 µM (inactive) | > 100 µM (inactive) | > 100 µM (inactive) | > 100 µM (inactive) | > 100 µM (inactive) | > 100 µM (inactive) | – | > 100 µM (inactive) | > 100 µM (inactive) | > 100 µM (inactive) | > 100 µM (inactive) | 79.4 µM (inactive) | – | > 100 µM (inactive) | > 100 µM (inactive) | > 100 µM (inactive) | – | > 100 µM (inactive)
9 | NC(=O)C1CCN(Cc2c(Cl)c(Cl)c(CN3CCC(C(N)=O)CC3)c(Cl)c2Cl)CC1 | > 100 µM (inactive) | > 100 µM (inactive) | > 100 µM (inactive) | 49.9 µM (inactive) | – | > 100 µM (inactive) | > 100 µM (inactive) | 86.3 µM (inactive) | > 100 µM (inactive) | > 100 µM (inactive) | 28.4 µM (inactive) | 42.9 µM (inactive) | > 100 µM (inactive) | 43.9 µM (inactive) | > 100 µM (inactive) | > 100 µM (inactive) | 34.8 µM (inactive) | > 100 µM (inactive) | > 100 µM (inactive)
10 | CN(/N=C\c1ccc2ccccc2c1)C1=NCCN1 | 10.3 µM (inactive) | 24.3 µM (inactive) | 15.3 µM (inactive) | 20.4 µM (inactive) | 19.5 µM (inactive) | 15.7 µM (inactive) | 11.2 µM (inactive) | – | 12.5 µM (inactive) | 20.8 µM (inactive) | 17.7 µM (inactive) | 15.2 µM (inactive) | 14.3 µM (inactive) | – | 19.1 µM (inactive) | 13.2 µM (inactive) | 18 µM (inactive) | 18.3 µM (inactive) | 18.1 µM (inactive)
11 | COC1OC(Cn2c(C)nc(Br)c2Br)C(O)C(O)C1O (stereo not drawn) | > 100 µM (inactive) | > 100 µM (inactive) | > 100 µM (inactive) | > 100 µM (inactive) | > 100 µM (inactive) | > 100 µM (inactive) | – | > 100 µM (inactive) | > 100 µM (inactive) | > 100 µM (inactive) | – | > 100 µM (inactive) | > 100 µM (inactive) | > 100 µM (inactive) | > 100 µM (inactive) | – | > 100 µM (inactive) | > 100 µM (inactive) | > 100 µM (inactive)
12 | Cc1ccc(S(=O)(=O)Oc2nc3ccccc3nc2N(S(=O)(=O)c2ccc(C)cc2)S(=O)(=O)c2ccc(C)cc2)cc1 | 72.4 µM (inactive) | 50.1 µM (inactive) | > 100 µM (inactive) | 63.1 µM (inactive) | 92.3 µM (inactive) | 33.7 µM (inactive) | > 100 µM (inactive) | 76.6 µM (inactive) | 28.7 µM (inactive) | – | 29 µM (inactive) | 81.8 µM (inactive) | 47.9 µM (inactive) | 66.8 µM (inactive) | 34.8 µM (inactive) | 39.8 µM (inactive) | 39.9 µM (inactive) | 56.5 µM (inactive) | > 10 µM (inactive)
13 | CC(C)(C)NC(=S)N/N=C/c1ccccn1 | < 0.0118 µM (active) | < 0.01 µM (active) | < 0.01 µM (active) | > 32.2 µM (inactive) | 0.0281 µM (active) | 1.94 µM (inactive) | – | 0.0851 µM (active) | 0.968 µM (active) | – | 3.28 µM (inactive) | 0.724 µM (active) | 0.409 µM (active) | 7.36 µM (inactive) | < 0.0113 µM (active) | 14.1 µM (inactive) | 0.357 µM (active) | 0.578 µM (active) | < 0.01 µM (active)
14 | O=C(Nc1ccn(C2CCC(CO)O2)c(=O)n1)c1ccccc1 (stereo not drawn) | > 100 µM (inactive) | 34.1 µM (inactive) | > 100 µM (inactive) | > 100 µM (inactive) | > 100 µM (inactive) | > 100 µM (inactive) | > 100 µM (inactive) | > 100 µM (inactive) | – | – | > 100 µM (inactive) | > 100 µM (inactive) | > 100 µM (inactive) | > 100 µM (inactive) | > 100 µM (inactive) | > 100 µM (inactive) | > 100 µM (inactive) | > 100 µM (inactive) | > 100 µM (inactive)
15 | O=C1CCC(=O)N1n1c(Cc2ccc(Cl)cc2)n[nH]c1=O | > 100 µM (inactive) | – | > 100 µM (inactive) | > 100 µM (inactive) | > 100 µM (inactive) | > 100 µM (inactive) | > 100 µM (inactive) | > 100 µM (inactive) | > 100 µM (inactive) | > 100 µM (inactive) | > 100 µM (inactive) | > 100 µM (inactive) | > 100 µM (inactive) | > 100 µM (inactive) | > 100 µM (inactive) | > 100 µM (inactive) | > 100 µM (inactive) | > 100 µM (inactive) | > 100 µM (inactive)
16 | CN1CC[C@]23c4c5ccc(O)c4OC2c2[nH]ncc2C[C@H]3[C@H]1C5 (stereo partly drawn) | > 100 µM (inactive) | > 100 µM (inactive) | > 100 µM (inactive) | > 100 µM (inactive) | > 100 µM (inactive) | > 100 µM (inactive) | > 100 µM (inactive) | > 100 µM (inactive) | > 100 µM (inactive) | > 100 µM (inactive) | – | > 100 µM (inactive) | > 100 µM (inactive) | > 100 µM (inactive) | – | > 100 µM (inactive) | > 100 µM (inactive) | > 100 µM (inactive) | > 100 µM (inactive)
